{"source": "patent US20190076467A1", "about": "“ANTIVIRAL CONJUGATES OF P[…] AND ANTIVIRAL DRUG” (priority 2015, published 2019)", "key": {"[1]": {"conditions": "cited from earlier work"}, "[2]": {"system": "Measles", "assay_type": "cell-based"}, "[3]": {"system": "Ebola virus", "assay_type": "cell-based, Ebola Zaire"}}, "data": [{"smiles": "C=C(C)C(=O)O", "note": "[methacrylic acid]", "values": [{"measurement": "pKa", "setting": "[1]", "value": 6.5}]}, {"smiles": "NC(=O)c1ncn([C@@H]2O[C@H](CO)[C@@H](O)[C@H]2O)n1", "note": "[Ribavirin]", "values": [{"measurement": "Activity against measles infectivity", "setting": "[2]", "value": "no activity"}, {"measurement": "Effect on proliferation of Ebola virus (qRT-PCR cycle number)", "setting": "[3]", "value": "no measurable effect"}]}, {"smiles": "C=CC(=O)O", "note": "[acrylic acid]", "values": [{"measurement": "pKa", "setting": "[1]", "value": 4.5}]}]}
